Patent US4059692A, “Treating impaired consciousness with glutamyl-L-histidyl-L-prolinamide” (Takeda Chemical Industries, Ltd., priority 1975, dated 1977)
Counter-ions that a name gives are not always drawn.

System: human patient with impaired consciousness due to functional or organic damage of the brain
Assay: Clinical administration of TRH tartrate to human patients with impaired consciousness (case reports 1-8)
Type: in vivo
Details: for motor/behavioural recovery: 200 μg free TRH i.m. daily
From the text: The method of the present invention is applicable to human patients with impaired consciousness due to functional or organic damage to the brain, such as cranial trauma, brain surgery, cerebrovascular disorder, brain tumors and the like.
According to the present invention, TRH may be employed as the free base or in the form of a physiologically acceptable salt such as an acid addition salt e.g. a mineral acid salt (hydrochloride, sulphate, etc.) or an organic acid salt (acetate, tartrate, etc.). TRH tartrate is especially convenient for the administration. TRH or its salts are generally administered by the parenteral routes such as intravenous or intramuscular routes to the patients. The therapeutic dosage depends upon the route and upon the severity of impaired consciousness in each patient, and it may generally be chosen from within the range of from about 100 to about 5,000 μg. in terms of free TRH per adult human patient per day, more particularly from about 500 to about 5,000 μg. in terms of free TRH per adult human patient per day, when parenterally e.g. intravenously or intramuscularly administered. In case of those patients having swallowing capacity TRH or its salts may be orally administered. In this case, the dosage may be of course chosen from within the abovementioned range, but it may be increased over the said range, for example, up to about 150 mg. in terms of free TRH per adult human patient per day.
Child: Postoperative state of haematoma of right frontal lobe caused by cranial trauma.
Before administration, the patient was able to respond to only painful stimuli with a verbal expression of pain, otherwise being unconcious with a slight palpebral opening. Such conscious state lasted without modification for a further 10 days. The daily intramuscular injection of 292 μg. of TRH tartrate (dissolved in 0.8 ml of a sterile physiological saline; 200 μg. in terms of free TRH) successively for 10 days.
person: Postoperative state of metastatic brain tumor on right frontal and pariental lobes.
Craniotomy performed for the reduction of the intracranial pressure was followed by the gradual deterioration of consciousness. Therefore, TRH tartrate in the daily dose of 730 μg. (dissolved in 20 ml of 20% glucose; 500 μg. in terms of free TRH) was administered by intravenous drip infusion of 13 days.
Child: Brain contusion due to cranial trauma.
The child suffered from bodily contusion and loss of consciousness by collision on their bicycle with a train. At the time of hospitalization, the bilateral facilitation of the knee-jerk reflex was associated with the positive Babinski's reflex bilaterally. The daily administration of 730 μg.
Person: Post-operative state of glioblastoma.
The surgical resection of glioblastoma by cranitomy was gradually followed by a worsening of the general condition associated with impaired consciousness for 3 months.
person: Traumatic protracted coma.
The patient had been thrown from a motor bike and disturbance of consciousness had become apparent immediately after the accident. There was movement of the extremities and grimacing of the face in response to pain stimulus. The disturbance of consciousness continued thereafter and the disturbance had become fixed for 2 years prior to medication with TRH. TRH tartrate in the daily dose of 7,300 μg. (dissolved in 200 ml of electrolyte solution; 5,000 μg. in terms of free TRH) was administered by intravenous drip infusion. […] They also began to answer friends vocally with "Ah", "Ah". […] The medication was terminated at the 10th day.
person: Aneurysm of left cerebral artery.
After an attack of subarachnoid hemorrhage, it was noted that they had lost accessibility with people around them and volition, and that they had been in an abstract state. This condition had lasted for 1 month. TRH tartrate in the daily dose of 3,650 μg. […]

[1] = Case 3, 500 μg free TRH i.v. drip daily for 10 days

NC(=O)[C@@H]1CCCN1C(=O)[C@H](Cc1cnc[nH]1)NC(=O)[C@@H]1CCC(=O)N1 [TRH tartrate]
state of consciousness (response to interview) (Case 1: postoperative haematoma of right frontal lobe, 292 μg TRH tartrate (200 μg free TRH) intramuscular daily for 10 days, 5th day of treatment): prompt verbal reply with a smile to the interview by the doctor | motor/behavioural recovery (Case 1, 7th day): able to ride and sit by themself on a wheel-chair | motor/behavioural recovery (Case 1, 8th day (the next day)): able to go to a stool with support | motor/behavioural recovery and conversation (Case 1, one day after termination of the 10-day daily administration): able to sit by themself on the bed and to have a conversation with others | conscious state (Case 2: postoperative metastatic brain tumor, 730 μg TRH tartrate (500 μg free TRH) intravenous drip infusion daily, 13 days, 2nd day): significant improvement of the conscious state | orientation ability (Case 2, 500 μg free TRH i.v. drip daily, 2nd day): improvement of orientation ability | persistence of improved conscious state (Case 2, after termination of the TRH treatment): persist for about one month after the termination of the TRH treatment | Babinski's reflex (Case 3: brain contusion, 730 μg TRH tartrate (500 μg free TRH) i.v. drip daily for 10 days, 2nd day): sluggish appearance of Babinski's reflex | impaired consciousness [1]: began to be improved from the 4th day | impaired orientation [1]: markedly improved | Babinski's reflex (Case 3, 500 μg free TRH i.v. drip daily, 3rd day): disappearance on the 3rd day | final outcome (Case 3, after treatment): recovered without any neurological abnormality | motor recovery (Case 3, one day after termination of the daily administration): able to walk | palpebral opening and eyeball movement (Case 4: post-operative glioblastoma, 1,460 μg TRH tartrate (1,000 μg free TRH) i.v. drip daily for 10 days): prolonged the time-length of the palpebral opening from the 4th day | consciousness (Case 4, 1,000 μg free TRH i.v. drip daily for 10 days): remarkable improvement of the consciousness | response to vocal questioning (Case 5: traumatic protracted coma fixed for 2 years, 7,300 μg TRH tartrate (5,000 μg free TRH) i.v. drip daily, two days after start): began to respond with a sound to vocal questioning and turn the eyes towards the questioner | side effects (Case 5, 5,000 μg free TRH i.v. drip daily, 10 days treatment period): No side effects were observed | level of consciousness (Case 5, 5,000 μg free TRH i.v. drip daily, from about the fifth day): definite improvement in the level of consciousness | abstract state (Case 6: aneurysm of left cerebral artery, subarachnoid hemorrhage, 3,650 μg TRH tartrate (2,500 μg free TRH) i.v. drip daily for 10 days, third day): abstract state disappeared | side effects (Case 6, 2,500 μg free TRH i.v. drip daily for 10 days): No noteworthy side effects were observed | state of consciousness (Case 6, 2,500 μg free TRH i.v. drip daily, seventh day): restored close to normal | behavior and spontaneous activity (Case 7: sequelae of head trauma, 8.76 mg TRH tartrate (6 mg free TRH) orally daily for 2 weeks, from the third day): normalization of behavior and spontaneous activity | side effects (Case 7, 6 mg free TRH orally daily for 2 weeks): No side effects were noted | conversation with people (Case 7, 6 mg free TRH orally daily, after 1 week): began to actively converse with people around them | persistence of improvement in level of consciousness (Case 7, after medication was terminated at 2 weeks): improvement in the level of consciousness was retained | spontaneous activity / volition (Case 8: sequelae of head trauma, 17.52 mg TRH tartrate (12 mg free TRH) orally daily, after 2 weeks): began to actively watch television or play the pinball machine | agnosia and disorientation (Case 8, 12 mg free TRH orally daily, after 2 weeks): little change in the agnosia and disorientation | side effects (Case 8, 12 mg free TRH orally daily, during and after termination of medication): No side effects have been observed | condition after termination of medication (Case 8, medication terminated after 2 weeks, after 3 months): no marked change in the condition of the patient

NC(=O)[C@@H]1CCCN1C(=O)[C@H](Cc1c[nH]cn1)NC(=O)[C@@H]1CCC(=O)N1 [TRH, L-pyroglutamyl-L-histidyl-L-prolinamide]
impaired consciousness (overall) (Case 5, 5,000 μg (free TRH) per day, case had not responded to conventional treatment): significant improvement of impaired consciousness
